# In the NIST ThermoML archive (doi:10.1016/j.fluid.2009.07.009):
# Numbers after ± are expanded uncertainties.
# Assay: relative permittivity at zero frequency (dimensionless)
# Conditions: 303.15 K; 101.33 kPa; Liquid; Parallel plate capacitor
row,Structure (SMILES),relative permittivity at zero frequency
1,"CN(C)CCO [2-(N,N-dimethylamino)ethanol]",17.18 ± 0.1
2,CN(C)C=O [dimethylformamide],36.55 ± 0.22
3,NC=O [formamide],106.14 ± 0.01
